The supplement of paper PMC11061612

Assays:
Capivasertib = compound: C1CN(CCC1(C(=O)N[C@@H](CCO)C2=CC=C(C=C2)Cl)N)C3=NC=NC4=C3C=CN4 [Capivasertib]; conditions: max 10 µM
Outline: (§1)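 Cancer cell lines in 1536-well plates (7.5 μl DMEM/F12 or RPMI, 10% FBS) were held 24 hours at 37°C and 5% CO2 and then dosed for 72 hours at a final DMSO of typically 0.2%. Viability was taken from CellTiter-Glo 2.0 luminescence, scaled between blank-well and DMSO-well means. Curves were fitted as two-parameter logistic models with a non-linear mixed effects model, from which the single-agent IC50 was taken.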

AZD1775 = compound: C=CCn1c(=O)c2cnc(Nc3ccc(N4CCN(C)CC4)cc3)nc2n1-c1cccc(C(C)(C)O)n1 [AZD1775]; conditions: max 3 µM
Outline: as §1

Trametinib = compound: CC(=O)Nc1cccc(-n2c(=O)n(C3CC3)c(=O)c3c(Nc4ccc(I)cc4F)n(C)c(=O)c(C)c32)c1 [Trametinib]; conditions: max 1 µM
Outline: as §1

Palbociclib = compound: CC(=O)c1c(C)c2cnc(Nc3ccc(N4CCNCC4)cn3)nc2n(C2CCCC2)c1=O [Palbociclib]; conditions: max 10 µM
Outline: as §1

AZD1390 = compound: CC(C)n1c(=O)n(C)c2cnc3cc(F)c(-c4ccc(OCCCN5CCCCC5)nc4)cc3c21 [AZD1390]; conditions: max 0.3 µM
Outline: as §1

Venetoclax = compound: CC1(C)CCC(CN2CCN(c3ccc(C(=O)NS(=O)(=O)c4ccc(NCC5CCOCC5)c([N+](=O)[O-])c4)c(Oc4cnc5[nH]ccc5c4)c3)CC2)=C(c2ccc(Cl)cc2)C1 [Venetoclax]; conditions: max 1 µM
Outline: as §1

Dasatinib = compound: CC1=C(C(=CC=C1)Cl)NC(=O)C2=CN=C(S2)NC3=CC(=NC(=N3)C)N4CCN(CC4)CCO [Dasatinib]; conditions: max 2 µM
Outline: as §1

SG3199 = compound: CC1=CN2[C@@H](C1)C=NC3=CC(=C(C=C3C2=O)OC)OCCCCCOC4=C(C=C5C(=C4)N=C[C@@H]6CC(=CN6C5=O)C)OC [SG3199]; conditions: max 0.001 µM
Outline: as §1

AZD2811 = compound: CCN(CCO)CCCOc1ccc2c(Nc3cc(CC(=O)Nc4cccc(F)c4)[nH]n3)ncnc2c1 [AZD2811]; conditions: max 1 µM
Outline: as §1

SN-38 = compound: CCc1c2c(nc3ccc(O)cc13)-c1cc3c(c(=O)n1C2)COC(=O)[C@]3(O)CC [SN-38]; conditions: max 0.3 µM
Outline: as §1

AZD0156 = compound: CN(C)CCCOc1ccc(-c2ccc3ncc4c(c3c2)n(C2CCOCC2)c(=O)n4C)cn1 [AZD0156]; conditions: max 3 µM
Outline: as §1

AZD4320 = compound: CN(CC[C@H](CSC1=CC=CC=C1)NC2=C(C=C(C=C2)S(=O)(=O)NC(=O)C3=CC=C(C=C3)N4CCC(CC4)[C@H](C5=CC=CC=C5C6=CC=C(C=C6)Cl)O)S(=O)(=O)C(F)(F)F)CCO [AZD4320]; conditions: max 1 µM
Outline: as §1

Alisertib = compound: COc1cc(Nc2ncc3c(n2)-c2ccc(Cl)cc2C(c2c(F)cccc2OC)=NC3)ccc1C(=O)O [Alisertib]; conditions: max 10 µM
Outline: as §1

Gefitinib = compound: COc1cc2ncnc(Nc3ccc(F)c(Cl)c3)c2cc1OCCCN1CCOCC1 [Gefitinib]; conditions: max 10 µM
Outline: as §1

Prexasertib = compound: COc1cccc(OCCCN)c1-c1cc(Nc2cnc(C#N)cn2)n[nH]1 [Prexasertib]; conditions: max 1 µM
Outline: as §1

Doxorubicin = compound: COc1cccc2c1C(=O)c1c(O)c3c(c(O)c1C2=O)C[C@@](O)(C(=O)CO)C[C@@H]3O[C@H]1C[C@H](N)[C@H](O)[C@H](C)O1 [Doxorubicin]; conditions: max 1 µM
Outline: as §1

AZD5153 = compound: COc1nnc2ccc(N3CCC(c4ccc(OCCN5CCN(C)C(=O)[C@H]5C)cc4)CC3)nn12 [AZD5153]; conditions: max 1 µM
Outline: as §1

Lapatinib = compound: CS(=O)(=O)CCNCc1ccc(-c2ccc3ncnc(Nc4ccc(OCc5cccc(F)c5)c(Cl)c4)c3c2)o1 [Lapatinib]; conditions: max 10 µM
Outline: as §1

AZD8186 = compound: C[C@@H](Nc1cc(F)cc(F)c1)c1cc(C(=O)N(C)C)cc2c(=O)cc(N3CCOCC3)oc12 [AZD8186]; conditions: max 3 µM
Outline: as §1

Crizotinib = compound: C[C@@H](Oc1cc(-c2cnn(C3CCNCC3)c2)cnc1N)c1c(Cl)ccc(F)c1Cl [Crizotinib]; conditions: max 10 µM
Outline: as §1

Savolitinib = compound: C[C@@H](c1ccc2nccn2c1)n1nnc2ncc(-c3cnn(C)c3)nc21 [Savolitinib]; conditions: max 1 µM
Outline: as §1

AZD6738 = compound: C[C@@H]1COCCN1C2=NC(=NC(=C2)C3(CC3)[S@](=N)(=O)C)C4=C5C=CNC5=NC=C4 [AZD6738]; conditions: max 10 µM
Outline: as §1

AZD5991 = compound: Cc1c2c(nn1C)CSCc1cc(n(C)n1)CSc1cc(c3ccccc3c1)OCCCc1c(C(=O)O)n(C)c3c-2c(Cl)ccc13 [AZD5991]; conditions: max 1 µM
Outline: as §1

AZD7648 = compound: Cc1cc2ncnn2cc1Nc1ncc2c(n1)n(C1CCOCC1)c(=O)n2C [AZD7648]; conditions: max 10 µM
Outline: as §1

Taselisib = compound: Cc1nc(-c2cn3c(n2)-c2ccc(-c4cnn(C(C)(C)C(N)=O)c4)cc2OCC3)n(C(C)C)n1 [Taselisib]; conditions: max 10 µM
Outline: as §1

Selumetinib = compound: Cn1cnc2c(F)c(Nc3ccc(Br)cc3Cl)c(C(=O)NOCCO)cc21 [Selumetinib]; conditions: max 10 µM
Outline: as §1

Olaparib = compound: O=C(c1cc(Cc2n[nH]c(=O)c3ccccc23)ccc1F)N1CCN(C(=O)C2CC2)CC1 [Olaparib]; conditions: max 10 µM
Outline: as §1

Row | Cell Line | IC50, cell viability 72 h (Capivasertib) [µM] | IC50, cell viability 72 h (AZD1775) [µM] | IC50, cell viability 72 h (Trametinib) [µM] | IC50, cell viability 72 h (Palbociclib) [µM] | IC50, cell viability 72 h (AZD1390) [µM] | IC50, cell viability 72 h (Venetoclax) [µM] | IC50, cell viability 72 h (Dasatinib) [µM] | IC50, cell viability 72 h (SG3199) [µM] | IC50, cell viability 72 h (AZD2811) [µM] | IC50, cell viability 72 h (SN-38) [µM] | IC50, cell viability 72 h (AZD0156) [µM] | IC50, cell viability 72 h (AZD4320) [µM] | IC50, cell viability 72 h (Alisertib) [µM] | IC50, cell viability 72 h (Gefitinib) [µM] | IC50, cell viability 72 h (Prexasertib) [µM] | IC50, cell viability 72 h (Doxorubicin) [µM] | IC50, cell viability 72 h (AZD5153) [µM] | IC50, cell viability 72 h (Lapatinib) [µM] | IC50, cell viability 72 h (AZD8186) [µM] | IC50, cell viability 72 h (Crizotinib) [µM] | IC50, cell viability 72 h (Savolitinib) [µM] | IC50, cell viability 72 h (AZD6738) [µM] | IC50, cell viability 72 h (AZD5991) [µM] | IC50, cell viability 72 h (AZD7648) [µM] | IC50, cell viability 72 h (Taselisib) [µM] | IC50, cell viability 72 h (Selumetinib) [µM] | IC50, cell viability 72 h (Olaparib) [µM]
1 | OS-RC-2 (Kidney Carcinoma) | > 10 | > 3 | > 1 | > 10 | > 0.3 | > 1 | > 2 | > 0.001 | > 1 | > 0.3 | > 3 | > 1 | > 10 | > 10 | 0.433 | > 1 | > 1 | > 10 | 1.91 | > 10 | > 1 | > 10 | > 1 | > 10 | > 10 | > 10 | > 10
2 | PA-1 (Ovarian Carcinoma) | 0.941 | 0.543 | 0.869 | 1.62 | > 0.3 | > 1 | 0.0302 | > 0.001 | > 1 | 0.0196 | > 3 | > 1 | 0.238 | > 10 | 0.187 | 0.209 | 0.0411 | 5.15 | 1.06 | 3.09 | > 1 | 3.17 | 0.0807 | > 10 | 0.248 | > 10 | > 10
3 | SISO (Cervical Carcinoma) | > 10 | 1.53 | > 1 | > 10 | > 0.3 | > 1 | > 2 | > 0.001 | > 1 | 0.0236 | > 3 | > 1 | 6.21 | > 10 | 0.237 | 0.29 | > 1 | > 10 | > 3 | > 10 | > 1 | > 10 | > 1 | > 10 | > 10 | > 10 | > 10
4 | SK-MES-1 (Squamous Cell Lung Carcinoma) | > 10 | 1.36 | 0.178 | > 10 | > 0.3 | > 1 | > 2 | > 0.001 | > 1 | 0.0305 | > 3 | > 1 | > 10 | > 10 | 0.0605 | > 1 | > 1 | 6.63 | > 3 | > 10 | > 1 | 8 | > 1 | > 10 | 4.88 | > 10 | > 10
5 | SK-MG-1 (Low Grade Glioma) | > 10 | > 3 | > 1 | > 10 | > 0.3 | > 1 | 0.886 | > 0.001 | > 1 | 0.06 | > 3 | > 1 | > 10 | > 10 | 0.0828 | > 1 | > 1 | > 10 | 2.73 | > 10 | > 1 | > 10 | > 1 | > 10 | 1.62 | > 10 | > 10
6 | TT2609-C02 (Thyroid Gland Carcinoma) | > 10 | > 3 | 0.28 | > 10 | > 0.3 | > 1 | > 2 | > 0.001 | > 1 | 0.069 | > 3 | > 1 | > 10 | > 10 | > 1 | > 1 | > 1 | > 10 | > 3 | > 10 | > 1 | > 10 | > 1 | > 10 | > 10 | 6.35 | > 10
